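Test compounds were applied to cells in 96-well plates for 48 hours at 5 doses. GI50 marks 50% less growth.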 Active and inactive are the calls of the source. No stated cut-off is given here; in the data, active = GI50 up to about 1.1 µM and inactive = higher.
How the values were obtained:
Experiment in all cases: growth of human tumour cells (NCI), 48 h
HCT-15 = tested on: HCT-15
SNB-19 = tested on: SNB-19
UACC-62 = tested on: UACC-62
M14 = tested on: M14
HT-29 = tested on: HT-29
HOP-62 = tested on: HOP-62
LOX IMVI = tested on: LOX IMVI
SF-268 = tested on: SF-268
UO-31 = tested on: UO-31
RPMI-8226 = tested on: RPMI-8226
CAKI-1 = tested on: CAKI-1
K562 = tested on: K562
A498 = tested on: A498
ACHN = tested on: ACHN
HL-60 = tested on: HL-60
NCI-H23 = tested on: NCI-H23
U-251 = tested on: U-251
Malme-3M = tested on: Malme-3M

Measured: GI50

O=C1CC(c2cccc(Cl)c2)n2cccc21 (stereo not given)
> 100 µM: HCT-15
inactive: SNB-19 > 100 µM | UACC-62 > 100 µM | M14 > 100 µM | HT-29 > 100 µM | HOP-62 > 100 µM | LOX IMVI > 100 µM | SF-268 74.6 µM | UO-31 26.5 µM | RPMI-8226 > 100 µM | CAKI-1 54.6 µM | K562 61.4 µM | A498 > 100 µM | ACHN > 100 µM | HL-60 32.8 µM | NCI-H23 > 100 µM | U-251 > 100 µM

CC(C)(CN1CCCCC1)C(=O)CC(SCCS(=O)(=O)O)c1ccc(Br)cc1 (stereo not given)
2.82 µM: HCT-15
inactive: SNB-19 2.34 µM | UACC-62 1.84 µM | M14 1.59 µM | HT-29 1.75 µM | HOP-62 6.18 µM | SF-268 2.61 µM | UO-31 1.47 µM | RPMI-8226 1.94 µM | CAKI-1 2.4 µM | K562 1.21 µM | A498 2.1 µM | ACHN 1.67 µM | NCI-H23 2.34 µM | Malme-3M 1.39 µM | U-251 1.56 µM

CCOC(=O)c1sc2c(sc(=O)n2-c2ccccc2)c1O
inactive: SNB-19 > 100 µM | UACC-62 > 100 µM | M14 > 100 µM | HT-29 > 100 µM | HOP-62 > 100 µM | LOX IMVI 55.7 µM | SF-268 > 100 µM | UO-31 > 100 µM | CAKI-1 > 100 µM | K562 > 100 µM | A498 > 100 µM | ACHN > 100 µM | HL-60 > 100 µM | NCI-H23 65.8 µM | Malme-3M > 100 µM | U-251 > 100 µM
> 100 µM: HCT-15

OCC(O)C(OC1OC(CO)C(O)C(O)C1O)c1nn(-c2ccccc2)c2nc3cc(Cl)ccc3nc12 (stereo not given)
inactive: SNB-19 > 100 µM | UACC-62 > 100 µM | M14 > 100 µM | HT-29 > 100 µM | HOP-62 > 100 µM | LOX IMVI > 100 µM | SF-268 > 100 µM | UO-31 > 100 µM | RPMI-8226 > 100 µM | K562 > 100 µM | A498 > 100 µM | ACHN > 100 µM | NCI-H23 > 100 µM | Malme-3M > 100 µM | U-251 > 100 µM
> 100 µM: HCT-15

C[C@@H]1[C@@H]2[C@@H](C=C3C4CCC5Cc6nc7c(nc6C[C@@]5(C)C4C[C@H](O)[C@]32CO)CC2CCC3C4=C[C@H]5O[C@@]6(OC(C)(CO)C[C@@H]6O)[C@H](C)[C@@]5(O)[C@]4(C)[C@@H](O)CC3[C@]2(C)C7)O[C@]12CCC(C)(C)O2 (stereo not given in full)
0.135 µM: HCT-15
active: SNB-19 0.111 µM | UACC-62 0.0802 µM | M14 0.0182 µM | HT-29 0.0625 µM | HOP-62 0.00311 µM | SF-268 0.0208 µM | UO-31 0.0575 µM | RPMI-8226 0.00144 µM | CAKI-1 0.021 µM | K562 0.0164 µM | A498 0.00883 µM | ACHN 0.171 µM | HL-60 0.00692 µM | NCI-H23 0.0328 µM | Malme-3M 0.101 µM | U-251 0.0053 µM

CC(=O)Nc1ccc(/C=C/C(=O)c2sc(C(N)=S)nc2C)cc1
inactive: UACC-62 > 100 µM | HT-29 > 100 µM | HOP-62 > 100 µM | LOX IMVI > 100 µM | SF-268 > 100 µM | UO-31 > 100 µM | RPMI-8226 > 100 µM | CAKI-1 > 100 µM | K562 > 100 µM | A498 > 100 µM | HL-60 > 100 µM | NCI-H23 > 100 µM | Malme-3M > 100 µM | U-251 > 100 µM
> 100 µM: HCT-15

CCOC(=O)CCc1c(C(=O)OCC)[nH]c(/C=C2\NC(=O)C(C)=C2CC)c1C
inactive: UACC-62 19.2 µM | M14 24.8 µM | HT-29 50.7 µM | HOP-62 14.5 µM | LOX IMVI 22.5 µM | SF-268 26.9 µM | UO-31 44 µM | RPMI-8226 > 100 µM | CAKI-1 24.3 µM | K562 > 100 µM | ACHN 15.5 µM | HL-60 > 100 µM | Malme-3M 10.4 µM | U-251 15.3 µM
26.1 µM: HCT-15

O=C1/C(=C/c2ccc3c(c2)OCO3)SC2C=Nc3ccccc3N12 (stereo not given)
> 100 µM: HCT-15
inactive: SNB-19 > 100 µM | UACC-62 54.8 µM | M14 > 100 µM | HT-29 > 100 µM | HOP-62 > 100 µM | LOX IMVI > 10 µM | SF-268 > 100 µM | UO-31 > 100 µM | CAKI-1 > 100 µM | A498 > 100 µM | ACHN > 100 µM | NCI-H23 > 100 µM | Malme-3M > 100 µM | U-251 > 100 µM

O=C(O)[C@@H](NS(=O)(=O)c1ccc2ccccc2c1)c1ccccc1
> 100 µM: HCT-15
inactive: SNB-19 > 100 µM | UACC-62 > 100 µM | M14 > 100 µM | HT-29 > 100 µM | LOX IMVI > 100 µM | SF-268 > 100 µM | UO-31 > 100 µM | RPMI-8226 > 100 µM | CAKI-1 > 100 µM | K562 > 100 µM | A498 > 100 µM | ACHN > 100 µM | HL-60 > 100 µM | NCI-H23 > 100 µM | Malme-3M > 100 µM | U-251 > 100 µM

O=c1oc(=O)c2oc3ccccc3oc1=2
inactive: SNB-19 > 100 µM | UACC-62 > 100 µM | M14 > 100 µM | HT-29 > 100 µM | HOP-62 > 100 µM | LOX IMVI > 100 µM | SF-268 > 100 µM | UO-31 > 100 µM | CAKI-1 > 100 µM | K562 > 100 µM | A498 > 100 µM | ACHN > 100 µM | HL-60 > 100 µM | NCI-H23 > 100 µM | Malme-3M > 100 µM | U-251 > 100 µM
> 100 µM: HCT-15

NCCCOCC(=O)O
> 100 µM: HCT-15
inactive: SNB-19 > 100 µM | UACC-62 > 100 µM | HT-29 > 100 µM | SF-268 > 100 µM | UO-31 > 100 µM | RPMI-8226 > 100 µM | K562 > 100 µM | ACHN > 100 µM | NCI-H23 > 100 µM | Malme-3M > 100 µM | U-251 > 100 µM

CC(=O)OC1(C(C)=O)CC2(c3ccccc3)OC1(c1ccccc1)c1ccccc12 (stereo not given)
6.38 µM: HCT-15
inactive: SNB-19 7.73 µM | UACC-62 4.36 µM | M14 14.4 µM | HT-29 30.1 µM | HOP-62 11.6 µM | LOX IMVI 16.4 µM | SF-268 52.5 µM | UO-31 12 µM | RPMI-8226 3.18 µM | ACHN 16.6 µM | NCI-H23 8.34 µM | Malme-3M 18.6 µM | U-251 18.2 µM

OCC(O)COc1c(Cl)ccc(Cl)c1Cl (stereo not given)
inactive: SNB-19 > 100 µM | UACC-62 > 100 µM | M14 > 100 µM | HT-29 > 100 µM | HOP-62 > 100 µM | LOX IMVI > 100 µM | SF-268 > 100 µM | UO-31 > 100 µM | CAKI-1 > 100 µM | K562 > 100 µM | A498 > 100 µM | ACHN > 100 µM | HL-60 > 100 µM | NCI-H23 > 100 µM | Malme-3M > 100 µM | U-251 > 100 µM
> 100 µM: HCT-15

c1cnc2c(c1)-n1cccc1C1(CCCCC1)NN2
37.4 µM: HCT-15
inactive: SNB-19 > 100 µM | M14 > 100 µM | HT-29 > 100 µM | HOP-62 > 100 µM | LOX IMVI 50 µM | SF-268 > 100 µM | UO-31 26.9 µM | RPMI-8226 47.9 µM | CAKI-1 60 µM | K562 45.1 µM | ACHN 88.3 µM | HL-60 93.8 µM | Malme-3M 62.1 µM

CN1C(=O)N(C)C2(O)c3ccccc3C(=O)C12O (stereo not given)
> 100 µM: HCT-15
inactive: SNB-19 > 100 µM | UACC-62 > 100 µM | M14 > 100 µM | HT-29 > 100 µM | HOP-62 > 100 µM | LOX IMVI > 100 µM | SF-268 > 100 µM | UO-31 > 100 µM | RPMI-8226 > 100 µM | CAKI-1 > 100 µM | K562 > 100 µM | A498 > 100 µM | ACHN > 100 µM | NCI-H23 > 100 µM | Malme-3M > 100 µM | U-251 > 100 µM

Cc1ccc(-c2cc(-c3ccco3)c(C#N)c(O)n2)cc1
> 100 µM: HCT-15
inactive: SNB-19 > 100 µM | UACC-62 > 100 µM | M14 > 100 µM | HT-29 > 100 µM | HOP-62 50.2 µM | LOX IMVI > 100 µM | SF-268 > 100 µM | UO-31 > 100 µM | RPMI-8226 > 100 µM | K562 > 100 µM | A498 > 100 µM | ACHN > 100 µM | HL-60 > 100 µM | NCI-H23 > 100 µM | Malme-3M > 100 µM | U-251 82.8 µM

CNC(=O)OCc1nc(SC2CCCCO2)n(C)c1COC(=O)NC (stereo not given)
inactive: SNB-19 > 100 µM | UACC-62 > 100 µM | M14 > 100 µM | HT-29 > 100 µM | HOP-62 > 100 µM | LOX IMVI > 100 µM | SF-268 > 100 µM | UO-31 > 100 µM | RPMI-8226 > 100 µM | CAKI-1 > 100 µM | K562 > 100 µM | A498 > 100 µM | HL-60 > 100 µM | NCI-H23 > 100 µM | Malme-3M > 100 µM | U-251 > 100 µM
> 100 µM: HCT-15
